Article PMC9456187, “The Ambivalence of Connexin43 Gap Peptides in Cardioprotection of the Isolated Heart against Ischemic Injury” (International Journal of Molecular Sciences, 2022)

How the values were obtained:
[1] = tested on: ischemic preconditioning (IPC) cardioprotection; settings: cited from earlier work; for Inhibition of the triggering step of IPC (in words): ref [21],[40],[41],[42],[43]; for Effect on cardioprotection by preconditioning (in words): ref [21]
Method: IPC is a powerful and robust cardioprotective mechanism. In the current study, we wanted to examine if IPC in combination with Gap peptides would interfere with infarct size limitation. […] Peptides were added prior to and during three cycles of ischemic preconditioning pretreatment before prolonged global ischemia but not at the following reperfusion. When combining Gap26 and ischemic preconditioning, the protection agains ... || Through the years, multiple attempts have been made to use cardioprotection by IPC or pharmacological interventions that mimic IPC to reduce infarct size in the clinic. So far, this has been without success when carried through to large phase 3 clinical studies. Adaption to stress is a beneficial endogenous mechanism closely related to injury mechanisms.

[2] = tested on: isolated perfused male rat hearts (connexin43 hemichannels); assay: Infarct size (TTC staining) after global ischemia-reperfusion, Langendorff-perfused heart; parameters: species or system male Wistar rat
Method: (§1) All experiments were approved by the Norwegian animal research authority and were performed according to the Norwegian Animal Welfare Act and the European Convention for the Protection of Vertebrate Animals Used for Experimental and other Scientific Purposes (ETS No. 123 and 2010/63/EU). Male Wistar rats 250–350 g (Charles River, UK) were anesthetized with pentobarbital (100 mg/kg i.p.) and heparinized (300 IU i.p.), the chest opened and the heart removed.
(§2) The heart was immediately submerged in an ice-cold buffer and quickly mounted on the perfusion apparatus, where it was perfused with the Krebs–Henseleit buffer (gassed with 5% CO2 and 95%O2) in a constant pressure Langendorff setup (100 cm H2O). The temperature was kept at 37 °C during the whole experiment by keeping the heart submerged in a heated buffer. Left ventricular pressure was recorded using a balloon catheter connected to a pressure transducer. Coronary flow was measured by timed collections of perfusate.
(§3) Hearts were stabilized for 15 min, then either subjected to 30 min of global ischemia and 2 h of reperfusion or preconditioning with 3 cycles of 5 min of ischemia and reperfusion (IPC) before 30 min of global ischemia and 2 h of reperfusion. Care was taken to secure controls corresponding in time and rat batch with the intervention experiments.
Connexin mimetic peptides Gap19 (amino acid sequence KQIEKKFK), Gap26 (VCYDKSFPISHVR) and Gap27 (SRPTEKTIFII) from Pepnome Inc., Hong Kong, China, were dissolved in the Krebs–Henseleit buffer to a final concentration of 0.5 µM [7, 12] and used in experiments the same day. Amino-acid sequences were confirmed by mass spectrometry analysis. The hearts that were subject to ischemia without IPC received the peptides prior to and after 30 min global ischemia. The hearts that were subject to IPC received the peptides during the preconditioning cycles only prior to 30 min ischemia.
At the end of reperfusion, the heart was immediately cut off caudal to the atria yielding only ventricular tissue. The ventricular tissue was then weighed in its wet state and immediately frozen to −18 °C for 24 h, sliced into four or five 2 mm thick slices and dyed with 1% 2, 3, 5 triphenyl tetrazolium chloride (TTC) (Sigma-Aldrich Co., Ltd., St. Louis, MI, USA) in Dulbecco’s phosphate buffered saline (PBS) (Sigma-Aldrich Co.). Each heart was submerged in 50mL of 1% TTC in PBS for 20 min at 37 °C in a light-free environment. Thereafter the slices were quickly dried and fixed in 4% formaldehyde for 30 min before they were scanned by a high-resolution scanner; the images were then blind-coded. Infarcts were manually traced, and the area of infarct relative to the whole area was quantified using Image J software. […]

[3] = tested on: isolated perfused male rat hearts; assay: Left ventricular function (LVDP, EDP) after ischemia-reperfusion, Langendorff-perfused heart; parameters: species or system male Wistar rat; settings: % recovery of initial preischemic LVDP after 30 min ischemia and 120 min reperfusion; peptide during IPC
Method: as §1, §2
as §3, with “experiments. […]” for “experiments.”

[4] = tested on: isolated perfused male rat hearts; assay: Coronary flow in isolated perfused heart; parameters: species or system male Wistar rat; settings: before 30 min ischemia; Gap peptide in buffer
Method: as §1, §2
as §3, with “experiments. […]” for “experiments.”

[5] = tested on: subsarcolemmal mitochondria isolated from perfused rat hearts; assay: High-resolution respirometry of isolated subsarcolemmal mitochondria; assay type: biochemical, male Wistar rat; settings: pH 7.4, 37 °C; for Oxygen flux, +Oligomycin: oligomycin 4 µg/mL; for Oxygen flux, +Oligomycin / Oxygen flux, +ADP 50 µM / Oxygen flux, Glutamate + Maleate / Oxygen flux, OXPHOS Saturating +ADP 2.5 mM / Oxygen flux, State 4 (LEAK ATP): mean ± SEM, n = 3; for Oxygen flux, +ADP 50 µM / Oxygen flux, Glutamate + Maleate / Oxygen flux, OXPHOS Saturating +ADP 2.5 mM / Oxygen flux, State 4 (LEAK ATP): 10 min preincubation on ice
Method: as §1
Hearts were control perfused or subjected to IPC. Isolation of mitochondria was performed using the procedure described by Palmer et al. (1977) with minor modifications. All procedures were performed on ice or at 4 °C. Briefly, the ventricles were removed, weighed and placed in the buffer containing (in mM): 100 KCl, 50 MOPS, 1 EGTA, 5 MgSO4, 1 ATP and pH 7.4. Heart tissue was minced with scissors in a small volume of buffer. Buffer plus bovine serum albumin BSA (2 mg/mL) were added, and the tissue suspension was homogenized with Polytron for 7 s and thereafter with two strokes of a Potter-Elvehjem homogenizer (Glas-Col, Terre Haute, IN, USA) and centrifuged at 590× g for 10 min at 4 °C. The supernatant was filtered through a nylon net (NITEX 300 lm; Yulee, FL, USA). Supernatants now containing mitochondria mainly from the subsarcolemmal compartment (SSM fraction) were centrifuged at 3000× g for 10 min at 4 °C, and the SSM pellet was again resuspended in the buffer plus BSA and centrifuged at 3000× g for 10 min. The pellet was resuspended in the buffer containing (in mM): 100 KCl, 50 MOPS 50, 0.5 EGTA and pH 7.4 and centrifuged at 3000× g for 10 min at 4 °C. The final pellet was resuspended in this buffer and left on ice for 30 min for stabilization of membranes.
Measurement of mitochondrial oxygen consumption was performed in an oxygraph (Oxygraph 2k; Oroboros Instruments, Innsbruck, Austria) using a respiration medium [100 KCl; 50 MOPS; 1 EGTA; 5 KH2PO4 (all in mM); BSA 1 mg mL) and pH = 7.4] in a closed 2 mL chamber at 37 °C. Glutamate (5.0 mM) and malate (2.5 mM) were used as substrates. After obtaining stable respiration O2 flux (nmol O2/min/mL), ADP was added to a final concentration of 50 µM to measure coupled respiration. After depletion of ADP and stable respiration, a saturating ADP amount (2.5 mM) was added to obtain max coupled respiration (OxPhos). Finally, oligomycin was added to a final concentration of 4 µg/mL to inhibit the ATP-synthase, and a stable state oligomycin measurement was recorded. At the end of the experiments, protein content was estimated by the Bradford method, and citrate synthase activity was measured. Results of O2 flux measurements (nmol O2/min) were normalized to citrate synthase activity (IU µmol/min) in the sample. Phosphate/oxygen ratio (P/O ratio) was calculated as ADP phosphorylated divided by oxygen molecules consumed. The respiratory control ratio (RCR) was calculated as the ratio between max state 3 (OxPhos) and […].
In order to assess the effect of Gap26 and Gap27 on mitochondrial respiration, peptides in concentrations 0.5, 5.0 and 50.0 µM were added to the isolated mitochondria. After 10 min preincubation on ice 60 µL of the suspension was added to the oxygraphy, and peptide concentration was adjusted to the new volume, so the final peptide concentration was the same during the whole experiment. Each subgroup consisted of samples from 3–4 hearts, and care was taken to minimize variability by testing the different Gap peptides and concentrations concomitantly in every heart at the same time using multiple respiratory chambers.
Statistical analysis was performed by SigmaPlot version 14.5 (Systate Software Inc. Chicago, IL, USA) using one-way or two-way ANOVA followed by the Holms Sidac method as a post hoc test when appropriate. Results are presented as mean ± SEM except for binding kinetics, which is presented as mean ± SD (n = 3–4).

[6] = control hearts (crt), peptide 0.5 µM
[7] = control hearts (crt), peptide 5 µM
[8] = control hearts (crt), peptide 50 µM

**Q.** With `CC(=O)Oc1ccccc1C(=O)O` [acetylsalicylic acid (aspirin), acetylsalicylic acid] as the molecule, how does the “Inhibition of the triggering step of IPC (in words)” value [1] read?
**A.** inhibit the triggering step of IPC

**Q.** Which “Inhibition of the triggering step of IPC (in words)” value [1] does the source give for `COc1ccc2[nH]cc(CCNC(C)=O)c2c1` [melatonin] here?
**A.** inhibit the triggering step of IPC

**Q.** Which “Effect on cardioprotection by preconditioning (in words)” value [1] does the source give for `CCCN(CCC)S(=O)(=O)c1ccc(C(=O)O)cc1` [probenecid] here?
**A.** could inhibit this effect

**Q.** Which results are given for `O=c1[nH]c(=O)c2[nH]c(=O)[nH]c2[nH]1` [uric acid]?
**A.** Inhibition of the triggering step of IPC (in words) [1]: inhibit the triggering step of IPC; Effect on cardioprotection by preconditioning (in words) [1]: blocks cardioprotection by preconditioning

**Q.** Which results are given for KQIEKKFK [Gap19]?
**A.** Cardioprotection / infarct size reduction when combined with IPC (in words) ([2]; Gap peptide prior to and during three IPC cycles, not at reperfusion): protection was maintained; Infarct size in % of untreated control infarcts, Gap peptide combined with IPC ([2]; IPC 3 cycles of 5 min ischemia/reperfusion, Gap peptide 0.5 µM (Figure 1 legend: 0.05 µM) only during preconditioning cycles before 30 min global ischemia, 2 h reperfusion, TTC, mean ± SEM): 60.9 ± 5.1%; Infarct size reduction (in words) ([2]; no IPC, Gap peptide immediately prior to ischemia and first 10 min of reperfusion): reducing infarct size to the same degree as ischemic preconditioning; Infarct size in % of untreated control infarcts ([2]; no IPC, isolated rat heart, 37 °C, Gap peptide 0.5 µM (Figure 1 legend: 0.05 µM) prior to and after 30 min global ischemia, 2 h reperfusion, TTC, mean ± SEM): 76.2 ± 2.7%; Recovery of LVDP, Gap peptide combined with IPC (in words) [3]: significant increase in % recovery of LVDP (p < 0.05); Coronary flow at baseline (in words) [4]: significantly reduced with Gap19 compared to control (p < 0.05); Mitochondrial respiration / average oxygen flux, RCR or P/O ratio (in words) ([5]; Gap peptides 0.5, 5, 50 µM added in vitro to isolated mitochondria from control or IPC hearts, glutamate + malate): not able to detect significant change; Oxygen flux, +Oligomycin ([5]; IPC hearts, peptide 0.5 µM): 37.8 ± 7.4 nmol O2 (µmol IU CS Activity)^−1; Oxygen flux, +ADP 50 µM ([5]; IPC hearts, peptide 0.5 µM): 69.8 ± 28.0 nmol O2 (µmol IU CS Activity)^−1; Oxygen flux, Glutamate + Maleate ([5]; IPC hearts, peptide 0.5 µM): 15.2 ± 4.2 nmol O2 (µmol IU CS Activity)^−1; Oxygen flux, OXPHOS Saturating +ADP 2.5 mM ([5]; IPC hearts, peptide 0.5 µM): 92.5 ± 25.1 nmol O2 (µmol IU CS Activity)^−1; Oxygen flux, State 4 (LEAK ATP) ([5]; IPC hearts, peptide 0.5 µM): 21.2 ± 5.3 nmol O2 (µmol IU CS Activity)^−1; Oxygen flux, +Oligomycin ([5]; IPC hearts, peptide 5 µM): 39.0 ± 3.7 nmol O2 (µmol IU CS Activity)^−1; Oxygen flux, +ADP 50 µM ([5]; IPC hearts, peptide 5 µM): 71.4 ± 7.5 nmol O2 (µmol IU CS Activity)^−1; Oxygen flux, Glutamate + Maleate ([5]; IPC hearts, peptide 5 µM): 15.9 ± 1.7 nmol O2 (µmol IU CS Activity)^−1; Oxygen flux, OXPHOS Saturating +ADP 2.5 mM ([5]; IPC hearts, peptide 5 µM): 98.3 ± 10.5 nmol O2 (µmol IU CS Activity)^−1; Oxygen flux, State 4 (LEAK ATP) ([5]; IPC hearts, peptide 5 µM): 21.0 ± 2.6 nmol O2 (µmol IU CS Activity)^−1; Oxygen flux, +Oligomycin ([5]; IPC hearts, peptide 50 µM): 44.2 ± 7.5 nmol O2 (µmol IU CS Activity)^−1; Oxygen flux, +ADP 50 µM ([5]; IPC hearts, peptide 50 µM): 76.8 ± 21.6 nmol O2 (µmol IU CS Activity)^−1; Oxygen flux, Glutamate + Maleate ([5]; IPC hearts, peptide 50 µM): 19.6 ± 6.1 nmol O2 (µmol IU CS Activity)^−1; Oxygen flux, OXPHOS Saturating +ADP 2.5 mM ([5]; IPC hearts, peptide 50 µM): 116.2 ± 37.7 nmol O2 (µmol IU CS Activity)^−1; Oxygen flux, State 4 (LEAK ATP) ([5]; IPC hearts, peptide 50 µM): 24.0 ± 6.1 nmol O2 (µmol IU CS Activity)^−1; Oxygen flux, +Oligomycin [5, 6]: 42.8 ± 4.5 nmol O2 (µmol IU CS Activity)^−1; Oxygen flux, +ADP 50 µM [5, 6]: 68.9 ± 6.5 nmol O2 (µmol IU CS Activity)^−1; Oxygen flux, Glutamate + Maleate [5, 6]: 16.6 ± 5.0 nmol O2 (µmol IU CS Activity)^−1; Oxygen flux, OXPHOS Saturating +ADP 2.5 mM [5, 6]: 89.2 ± 35.6 nmol O2 (µmol IU CS Activity)^−1; Oxygen flux, State 4 (LEAK ATP) [5, 6]: 23.8 ± 5.2 nmol O2 (µmol IU CS Activity)^−1; Oxygen flux, +Oligomycin [5, 7]: 43.5 ± 2.6 nmol O2 (µmol IU CS Activity)^−1; Oxygen flux, +ADP 50 µM [5, 7]: 75.1 ± 11.3 nmol O2 (µmol IU CS Activity)^−1; Oxygen flux, Glutamate + Maleate [5, 7]: 16.6 ± 2.6 nmol O2 (µmol IU CS Activity)^−1; Oxygen flux, OXPHOS Saturating +ADP 2.5 mM [5, 7]: 113.7 ± 12.9 nmol O2 (µmol IU CS Activity)^−1; Oxygen flux, State 4 (LEAK ATP) [5, 7]: 22.1 ± 1.6 nmol O2 (µmol IU CS Activity)^−1; Oxygen flux, +Oligomycin [5, 8]: 44.6 ± 5.1 nmol O2 (µmol IU CS Activity)^−1; Oxygen flux, +ADP 50 µM [5, 8]: 78.9 ± 14.0 nmol O2 (µmol IU CS Activity)^−1; Oxygen flux, Glutamate + Maleate [5, 8]: 18.2 ± 0.9 nmol O2 (µmol IU CS Activity)^−1; Oxygen flux, OXPHOS Saturating +ADP 2.5 mM [5, 8]: 115.3 ± 8.7 nmol O2 (µmol IU CS Activity)^−1; Oxygen flux, State 4 (LEAK ATP) [5, 8]: 24.8 ± 3.0 nmol O2 (µmol IU CS Activity)^−1
